We go through 1 compound from paper PMC10667104, “Biosynthesis of natural and halogenated plant monoterpene indole alkaloids in yeast” (Nature Chemical Biology, 2023).

SMILES strings stand for the structures.

The target in the experiment is T1, ADRA2A (Homo sapiens, UniProt P08913).
T1 sequence (P08913 1-465): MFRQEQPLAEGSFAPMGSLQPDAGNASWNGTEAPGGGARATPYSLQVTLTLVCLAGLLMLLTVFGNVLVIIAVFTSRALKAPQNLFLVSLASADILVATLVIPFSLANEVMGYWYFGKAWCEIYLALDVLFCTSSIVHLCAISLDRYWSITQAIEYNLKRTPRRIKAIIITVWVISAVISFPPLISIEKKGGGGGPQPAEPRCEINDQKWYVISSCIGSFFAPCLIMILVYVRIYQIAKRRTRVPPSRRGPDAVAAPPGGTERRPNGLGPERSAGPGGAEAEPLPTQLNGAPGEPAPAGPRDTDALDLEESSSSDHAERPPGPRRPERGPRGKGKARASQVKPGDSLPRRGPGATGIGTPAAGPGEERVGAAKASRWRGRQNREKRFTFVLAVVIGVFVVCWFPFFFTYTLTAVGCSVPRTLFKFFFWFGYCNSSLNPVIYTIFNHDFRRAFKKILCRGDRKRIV
Nature of the experiment: cell-based.

Consider `COC(=O)C1=CO[C@@H](C)[C@@H]2Cn3ccc4c5ccccc5nc-4c3C[C@H]12` [1a, alstonine], for which the IC50 came out at 59 µM.

As usually defined, the IC50 is the concentration at which inhibition is half-maximal. A high value points to weaker potency in that assay.
